Experimental data as given in patent US4931471A, “Amides of paramethoxycinnamic and utilization thereof as solar filters” (priority 1985, dated 1990).

What was measured:
[1] = UV spectrum (absorption maximum); format: physicochemical
[2] = Degradation in rat skin homogenate (TLC after 12 h); format: in vitro ADME
Experimental: The hypodermis was carefully detached by means of a razor blade. The remaining epidermis and dermis were cut into thin lamellae and placed in a conical flask containing 20 ml of phosphate buffer of pH 8. The lamellae were then ground in a Potter mill with large teeth so as to prevent the proteases from being released from the cell nuclei. The preparation obtained was centrifuged at 25,000 rpm and the supernatant was removed. 10 μmol of the test product were suspended in 4 ml of the homogenate. After 12 h, the solutions were analyzed by TLC.
When using rat skin homogenates such as those described above, no degradation of the amides according to Examples I and III to XI was observed, whereas the amide of Example II undergoes 30% degradation.

[3] = system: esterases in the skin and plasma; conditions: loss of UV-B filtering power on the skin; cited from earlier work
[4] = man; cited from earlier work

Row | UV spectrum: maximum ([1]; CHCl3) | Compound | other results
1 | 295 nm | COc1ccc(C=CC(=O)N2CCCCC2)cc1 [Example I, N-(4-Methoxycinnamoyl)piperidine] | 
2 | 309 nm | COC(=O)[C@H](CCSC)NC(=O)C=Cc1ccc(OC)cc1 [Example II, Methyl ester of N-(4-methoxycinnamoyl)-L-methionine] | degradation (in words) [2]: slightly degraded; metabolised at 12 h ([2]; pH 8): 30%
3 | 306 nm | COC(=O)[C@H](CSC)NC(=O)C=Cc1ccc(OC)cc1 [Example V, Methyl ester of S-methyl-N-(4-methoxycinnamoyl)-L-cysteine] | 
4 | 310 nm | COC(=O)[C@H](CSCc1ccccc1)NC(=O)C=Cc1ccc(OC)cc1 [Example VI, Methyl ester of S-benzyl-N-(4-methoxycinnamoyl)-L-cysteine] | 
5 | 312 nm | COC(=O)[C@H](Cc1ccc(O)cc1)NC(=O)C=Cc1ccc(OC)cc1 [Example VII, Methyl ester of N-(4-methoxycinnamoyl)-L-tyrosine] | 
6 |  | COC(=O)C=Cc1cn(C(=O)C=Cc2ccc(OC)cc2)cn1 [Example VIII, Methyl ester of (4-methoxycinnamoyl)imidazol-4-ylprop-2-enoic acid (amide of paramethoxycinnamic acid and the methyl ester of urocanic acid)] | UV spectrum: maximum ([1]; 100° ethanol): 350 nm
7 | 314 nm | COC(=O)[C@H](CS)NC(=O)C=Cc1ccc(OC)cc1 [III, Methyl ester of N-(4-methoxycinnamoyl)-L-cysteine] | 
8 | 309 nm | COC(=O)[C@H](CSSC[C@H](NC(=O)C=Cc1ccc(OC)cc1)C(=O)OC)NC(=O)C=Cc1ccc(OC)cc1 [IV, Dimethyl ester of N,N'-di(4-methoxycinnamoyl)-L-cystine] | 
9 |  | CCCCC(CC)COC(=O)C=Cc1ccc(OC)cc1 (stereo not drawn) [Ibis] | hydrolysis under the influence of the esterases in the skin and plasma [3]: hydrolyzes to p-methoxycinnamic acid
10 | 285 nm | O=C(C=Cc1c[nH]cn1)N1CCCCC1 [X, N-[3-(1H-Imidazol-4-yl)-1-oxoprop-2-enyl]piperidine] | 
11 |  | COC(=O)/C=C/c1cn(C(=O)C=Cc2ccc(OC)cc2)cn1 [XI, Amide of paramethoxycinnamic acid and the methyl ester of trans-urocanic acid] | absorbing UV-A and UV-B radiation simultaneously ([1]; in words): capable of absorbing UV-A and UV-B radiation simultaneously
12 |  | O=C(O)/C=C/c1c[nH]cn1 [urocanic acid] | passage into the blood [4]: passage into human blood
13 | 309 nm | Amide of paramethoxycinnamic acid and the methyl ester of oxidized qlutathione [IX] | 
